Measured values published in US20040019013A1, “Formulation for the parenteral application of a sodium channel blocker” (Boehringer Ingelheim Pharma GmbH & Co. KG, Ingelheim, …, priority 2002, published 2004).

Experiment: Solubility experiments and 1H-NMR spectra: complexing with cyclodextrins
Assay type: physicochemical
Settings: hydrochloride of BIII 890; γ-cyclodextrin, HPγCD, HPβCD and SBEβCD

## C[C@@H](CN1CC[C@@]2(C)c3cccc(O)c3C[C@@H]1C2(C)C)OCc1ccccc1 [BIII 890, (−)-(1R,2″S)-2-(2″-benzyloxy)propyl-4′-hydroxy-5,9,9-trimethyl-6,7-benzomorphan]
  complexing of the active substance by cyclodextrins: complex
